Nine molecules from publication PMC12802172, “Mechanistic insights into dual-active liver and blood-stage antiplasmodials” (mBio, 2025) can be followed below.

Test [1] has as its system T1, Plasmodium falciparum CAM (PH0212C).
T1 construct: Cam/PH0212C
Nature of the test: microbe, parasite or virus in culture. On the set-up: species or system P. falciparum in human erythrocytes; asexual blood-stage growth inhibition, synchronized ring-stage parasites, SYBR Green I fluorescence. To be noted: Erythrocyte, 72 h, read-out: P. falciparum asexual blood stage activity (IC50 uM) / CAM (PH0212C) / IC50. The protocol:
(§1) Compound dose-response assays were performed in flat-bottom 96-well plates. Tightly synchronized ring-stage parasites were adjusted to 1% parasitemia at 1% hematocrit and exposed to a twofold serial dilution of the compounds plated using a Tecan D300e digital dispenser. As controls, the assay plate included untreated parasites and parasites treated with 700 nM DHA only. After 72 h of incubation, parasite growth was measured by lysing the cells with a 2 × lysis buffer containing 10 mM Tris-HCl, 5 mM EDTA, 0.1% (wt/vol) saponin, and 1% (vol/vol) Triton X-100, supplemented with 2 × SYBR Green I (Molecular Probes). Fluorescence was recorded using a FluorStar Omega v5.11 plate reader. IC50 values were determined using GraphPad Prism v9, and statistical significance was assessed with a two-sided Mann-Whitney U test. Each assay was conducted in technical duplicate, with a minimum of three biological replicates, as described in the figure legends. P. falciparum parasites were cultured with fresh human erythrocytes at 3% hematocrit in RPMI 1640 medium (Gibco), supplemented with 0.5% Albumax II (Gibco), 25 mM HEPES (Sigma), 1× GlutaMAX (Gibco), and 25 μg/mL gentamicin (Gibco). The following parasite strains were used: 3D7, Dd2 (MR4, MRA-156, T. Wellems), GB4 (MR4, MRA-925, T. Wellems), UG659 (P. Rosenthal), Cam/PH0212C (R. Fairhurst), and Cam3.II/ PH0306-C (R. Fairhurst). The cultures were maintained under a controlled tri-gas atmosphere of 1% O2, 3% CO2, and 96% N2. Human erythrocytes were ethically sourced from healthy, anonymous donors through the Scottish National Blood Transfusion Service (SNBTS) or the National Health Services Blood and Transplant (NHSBT). The use of red blood cells was with approval from the University of Dundee Schools of Medicine and Life Sciences Research Ethics Committee, and the NHS Cambridgeshire Research Ethics Committee and Wellcome Sanger Institute Human Materials and Data Management Committee. Half-maximal growth inhibition concentrations were determined for the nine query compounds against chloroquine-sensitive (3D7) and multidrug-resistant (Dd2) parasites (Fig. 1B; Table S1). Compounds were further assessed against a panel of geographically diverse parasite strains, including two multidrug-resistant Cambodian isolates (resistant to artemisinin, chloroquine, and pyrimethamine) and strains from Uganda (UG659) and Ghana (GB4). […] However, a reduction in sensitivity to TCMDC-134122 was noted across all strains when compared to Dd2.

The subject of another test is T2, P. falciparum Dd2.
T2 construct: Dd2
Nature of the test: microbe, parasite or virus in culture. On the set-up: species or system P. falciparum in human erythrocytes; asexual blood-stage growth inhibition, synchronized ring-stage parasites, SYBR Green I fluorescence. The conditions noted are these: Plasmodium falciparum, DD2, Erythrocyte, 72 h. The method, then:
as §1

The test system of the next test is T3, P. falciparum 3D7.
T3 construct: 3D7
Nature of the test: microbe, parasite or virus in culture. On the set-up: species or system P. falciparum in human erythrocytes; asexual blood-stage growth inhibition, synchronized ring-stage parasites, SYBR Green I fluorescence. The conditions noted are these: Plasmodium falciparum, 3D7, Erythrocyte, 72 h; initial laboratory strain experiment (Table S1); read-out: P. falciparum asexual blood stage activity (IC50 uM) / 3D7. The method, then:
as §1

The subject of test [2] is T4, Plasmodium falciparum UG654 (UG659 in methods).
T4 construct: UG659
Nature of the test: microbe, parasite or virus in culture. On the set-up: species or system P. falciparum in human erythrocytes; asexual blood-stage growth inhibition, synchronized ring-stage parasites, SYBR Green I fluorescence. The conditions noted are these: Erythrocyte, 72 h, read-out: P. falciparum asexual blood stage activity (IC50 uM) / UG654 / IC50. The method, then: as §1

For test [3], the system named is T5, Plasmodium falciparum Cam3.II.
T5 construct: Cam3.II
The test is described as follows: microbe, parasite or virus in culture. On the set-up: species or system P. falciparum in human erythrocytes; asexual blood-stage growth inhibition, synchronized ring-stage parasites, SYBR Green I fluorescence. To be noted: Erythrocyte, 72 h, read-out: P. falciparum asexual blood stage activity (IC50 uM) / Cam3.II / IC50. The protocol:
as §1

The subject of test [4] is T6, Plasmodium falciparum GB4.
T6 construct: GB4
Nature of the test: microbe, parasite or virus in culture. On the set-up: species or system P. falciparum in human erythrocytes; asexual blood-stage growth inhibition, synchronized ring-stage parasites, SYBR Green I fluorescence. The conditions noted are these: Erythrocyte, 72 h, read-out: P. falciparum asexual blood stage activity (IC50 uM) / GB4 / IC50. The protocol:
as §1

For test [5], the target named is T7, P. falciparum cytoplasmic isoleucyl-tRNA synthetase (PfcIRS) (Plasmodium falciparum, UniProt Q8IDZ9).
T7 construct: gene PF3D7_1332900; full-length PfcIRS (1-1273), C-terminal TEV-cleavable His10-FLAG tag removed, Sf9 expressed
The test is described as follows: AMP-Glo enzymatic assay with recombinant PfcIRS. Format: biochemical.

[6] abbreviates: initial laboratory strain experiment (Table S1), read-out: P. falciparum asexual blood stage activity (IC50 uM) / Dd2.
Setting [7] is: strain panel experiment (Table S2), read-out: P. falciparum asexual blood stage activity (IC50 uM) / Dd2 / IC50.

Molecules are shown by their SMILES. Like-named read-outs stand apart in the source and are kept apart here.

T7 sequence (Q8IDZ9 entry or part of it): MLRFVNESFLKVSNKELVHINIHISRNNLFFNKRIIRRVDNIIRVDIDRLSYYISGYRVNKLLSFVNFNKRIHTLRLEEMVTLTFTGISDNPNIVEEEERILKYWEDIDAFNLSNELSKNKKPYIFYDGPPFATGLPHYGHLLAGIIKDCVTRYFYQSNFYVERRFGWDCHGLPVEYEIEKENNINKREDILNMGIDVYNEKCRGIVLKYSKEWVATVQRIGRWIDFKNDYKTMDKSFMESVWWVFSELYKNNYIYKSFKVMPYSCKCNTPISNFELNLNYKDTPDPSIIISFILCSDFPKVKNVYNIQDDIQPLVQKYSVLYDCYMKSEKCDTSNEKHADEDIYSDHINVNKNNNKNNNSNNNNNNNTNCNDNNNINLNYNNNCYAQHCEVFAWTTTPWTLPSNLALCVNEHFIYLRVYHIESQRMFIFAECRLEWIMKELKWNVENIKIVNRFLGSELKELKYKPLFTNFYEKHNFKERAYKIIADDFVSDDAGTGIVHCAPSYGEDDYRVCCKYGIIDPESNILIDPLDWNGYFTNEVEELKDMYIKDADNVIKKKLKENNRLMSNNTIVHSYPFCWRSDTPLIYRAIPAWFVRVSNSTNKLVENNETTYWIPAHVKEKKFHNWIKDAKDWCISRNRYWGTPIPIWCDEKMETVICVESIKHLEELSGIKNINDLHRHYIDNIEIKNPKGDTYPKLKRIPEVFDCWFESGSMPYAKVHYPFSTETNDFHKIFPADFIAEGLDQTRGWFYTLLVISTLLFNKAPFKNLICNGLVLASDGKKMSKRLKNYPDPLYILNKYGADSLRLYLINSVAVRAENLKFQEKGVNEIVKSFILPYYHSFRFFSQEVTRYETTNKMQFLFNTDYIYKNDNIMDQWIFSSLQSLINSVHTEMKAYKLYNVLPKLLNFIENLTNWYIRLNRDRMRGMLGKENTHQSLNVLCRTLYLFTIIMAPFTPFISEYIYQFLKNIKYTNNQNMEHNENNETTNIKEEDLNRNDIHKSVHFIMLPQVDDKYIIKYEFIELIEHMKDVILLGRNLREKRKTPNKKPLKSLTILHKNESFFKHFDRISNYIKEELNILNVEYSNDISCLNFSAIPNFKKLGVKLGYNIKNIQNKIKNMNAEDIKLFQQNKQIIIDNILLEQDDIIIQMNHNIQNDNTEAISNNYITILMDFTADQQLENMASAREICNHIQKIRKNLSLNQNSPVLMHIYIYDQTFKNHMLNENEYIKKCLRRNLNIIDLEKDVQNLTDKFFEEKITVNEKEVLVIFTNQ

For `CC(C)(CN)c1cc(-c2ccc(Cl)c(O)c2)c(-c2ccncc2)o1` [TCMDC-141334], the IC50 in test [1] was determined as 0.676 µM; with P. falciparum Dd2 (setting [6]), 0.414 µM; in the test with P. falciparum Dd2 (setting [7]), 0.485 µM; with P. falciparum 3D7, 0.446 µM; in test [2], 0.537 µM; in test [3], 0.644 µM. For the same molecule, the IC50 in test [4] is 0.974 µM.
Turning to `COc1cc(-c2[nH]c(C(C)(C)CN)nc2-c2ccncc2)ccc1Br` [TCMDC-140674], the IC50 in test [1] was 0.501 µM; in the test with P. falciparum Dd2 (setting [6]), 0.244 µM; in the test with P. falciparum Dd2 (setting [7]) it was 0.341 µM; in the test on P. falciparum 3D7, 0.688 µM; in test [2], 1.07 µM; in test [3] it was 0.532 µM. For the same molecule, the IC50 in test [4] is 1.85 µM.
In the case of `c1ccn2c(Sc3ncnc4sccc34)ncc2c1` [TCMDC-124602], the IC50 in test [1] came out at 0.313 µM; in the test on P. falciparum Dd2 (setting [6]), 0.45 µM; in the test with P. falciparum Dd2 (setting [7]), 0.288 µM; in the test with P. falciparum 3D7, 0.502 µM; in test [2], 0.354 µM; in test [3], 0.316 µM. Further, the IC50 in test [4] came out at 0.651 µM; in test [5], 6.59 µM.
Take `Cc1cccc2[nH]c(-c3ccc(-c4cccc(NC(=O)C(C)CN5CCN(C)CC5)c4)cc3)nc12` (stereo not shown) [TCMDC-137144]: the IC50 in test [1] turned out to be 1.2 µM; in the test with P. falciparum Dd2 (setting [6]), 1.4 µM; with P. falciparum Dd2 (setting [7]), 1.39 µM; with P. falciparum 3D7 it was 0.912 µM; in test [2], 2.18 µM; in test [3], 1.39 µM. The IC50 in test [4] is 1.94 µM.
As for `CCOc1ccc2nc(NC(=O)c3csnn3)sc2c1` [TCMDC-125075], the IC50 in test [1] was determined as 0.195 µM; in the test on P. falciparum Dd2 (setting [6]) it was 0.206 µM; in the test with P. falciparum Dd2 (setting [7]), 0.192 µM; in the test on P. falciparum 3D7, 0.144 µM; in test [2], 0.178 µM; in test [3] it was 0.115 µM. Further, the IC50 in test [4] worked out at 0.16 µM.
Consider `Cc1cccc2[nH]c(-c3cccc(-c4cccc(NC(=O)CCc5c[nH]cn5)c4)c3)nc12` [TCMDC-132158], for which the IC50 is 0.654 µM in test [1]; 0.609 µM in the test with P. falciparum Dd2 (setting [6]); 0.932 µM in the test on P. falciparum Dd2 (setting [7]); 0.616 µM in the test on P. falciparum 3D7; 1.82 µM in test [2]; 0.757 µM in test [3]. Also, the IC50 in test [4] turned out to be 1.72 µM.
For `Cc1cccc(C)c1CNc1cccc(-c2nc(C)c(C)[nH]2)c1` [TCMDC-133434], the IC50 in test [1] is 1.33 µM; in the test on P. falciparum Dd2 (setting [6]), 0.851 µM; in the test on P. falciparum Dd2 (setting [7]) it was 1.74 µM; in the test with P. falciparum 3D7, 0.89 µM; in test [2], 1.22 µM; in test [3], 1.21 µM. Besides, the IC50 in test [4] was determined as 0.924 µM.
As for `CC(C)(C)c1cc(Cl)cc(C(=O)Nc2cc([N+](=O)[O-])ccc2Cl)c1O` [TCMDC-142214], the IC50 in test [1] is 3.8 µM; in the test with P. falciparum Dd2 (setting [6]), 3.17 µM; in the test on P. falciparum Dd2 (setting [7]), 2.88 µM; in the test with P. falciparum 3D7 it was 3.65 µM; in test [2], 3.07 µM; in test [3], 2.78 µM. Moreover, the IC50 in test [4] stood at 3.08 µM.
Consider `COc1ccc(-n2ncc(C(=O)N3CCC4(C3)C(=O)N(c3ccccc3)c3ccccc34)c2C)cc1` (stereo not shown) [TCMDC-134122], for which the IC50 in test [1] worked out at 1.25 µM; with P. falciparum Dd2 (setting [6]), 0.216 µM; in the test with P. falciparum Dd2 (setting [7]), 0.394 µM; with P. falciparum 3D7, 0.572 µM; in test [2] it was 1.17 µM; in test [3], 1.78 µM. Further, in test [4], the IC50 came to 1.67 µM.
